From patent publication US12678436B2, “Pharmaceutical composition for preventing or treating fibrosis” (Daewoong Pharmaceutical Co., Ltd., priority 2021, dated 2026)

Columns and labels:
[1] = tested on: animal model of pulmonary fibrosis; test: Lung function evaluation (SpO2) in BLM-administered mice; format: in vivo; conditions: for SpO2: 2 weeks, 21st day after BLM
Method: (§1) 70-100 μL of BLM solution (bleomycin 1-3 mg/kg) was administered to a lung of the acclimatized experimental animals using a catheter for 5 days or more. In accordance with the purpose of the test, the test drug was administered 7 days after BLM administration, and the drug was orally administered for 2 weeks until the 21st day of BLM administration. Body weight, SpO2, hydroxyproline, and inflammation cell counts were measured to determine the anti-fibrotic efficacy of the active component.
(§2) As a control group, Nintedanib (hereinafter ‘NIN’) and Pirfenidone (hereinafter ‘PID’), which are standard of care (hereinafter ‘SoC’) for idiopathic pulmonary fibrosis, were used. The effective dose of NIN used was confirmed through in vivo efficacy data in the literature published by Boehringer Ingelheim, which is a NIN development company, and the effective dose of PID was set in terms of mice based on in vivo efficacy (rat) data and 2-week repeated toxicity dose (rat) in FDA Pharmacology Review.
This lung function evaluation is the most direct and important evaluation index that has the greatest influence on the symptoms and quality of life of patients with pulmonary fibrosis, and is an experiment that can most directly show the effect of improving lung function in an animal model of pulmonary fibrosis by measuring the oxygen concentration in the body.
On the 21st day, it was measured with a SpO2 measuring device (Berry, Veterinary Pulse Oximeter) via the abdominal side of the mouse, and the results are shown in Table 2 and FIG. 1.

[2] = Measurement of change in body weight in BLM-administered mice; format: in vivo; conditions: for change in body weight: 21st day
Method: as §1, §2
Body weight is an indirect indicator that can know the degree of improvement in the overall physical condition of the animal model. When the degree of weight loss is small, it can be inferred that the overall physical condition or symptoms of the disease are improved.
The body weight was measured using a scale on the 21st day when the administration was completed, and the results are shown in Table 6 and FIG. 5 below.

[3] = tested on: animal model of pulmonary fibrosis; test: Histopathology (Ashcroft score) analysis of lung tissue; format: in vivo, mice; conditions: for Fibrotic Index (±SEM): 21st day, 9 individuals
Method: as §1, §2
The degree of fibrosis and inflammation of the lung tissue were visually observed through a microscope, and the degree of fibrosis of lung tissue was measured with a Fibrotic Index according to normalized criteria. The higher the Fibrotic Index value, the more severe the degree and symptom of fibrosis. It is interpreted that as the value is lower, the symptom is relieved.
On the 21st day, lung tissue was separated and stained using H&E and MT stain, and observed at 200× magnification. The observed results were scored by Ashcroft (Hubner et al., 2008). The fibrotic index was calculated by dividing the sum of the adjusted Ashcroft field scores by the number of fields tested, and shown in Table 4 and FIG. 3.

[4] = tested on: animal model of pulmonary fibrosis; test: Inflammation cell count analysis in BALF; format: in vivo, mice; conditions: for Lymphocyte (BALF cell count) / Macrophage (BALF cell count) / Neutrophil (BALF cell count) / Total cell (BALF cell count): 21st day
Method: as §1, §2
Since fibrosis is a chronic inflammatory disease characterized by excessive collagen deposition, the infiltration of inflammatory cells was analyzed to determine the degree of inflammation in the lung tissue.
At the sacrifice on the 21st day of administration, BALF (Bronchoalveolar lavage fluid) cells obtained through airway washing of mice were diluted with 1.05×PBS and attached to a slide, and then the slide was immersed and removed for 30 seconds in the order of 1, 2, 3 diff quick stain solution, and stained. It was counted based on 500 cells. Macrophages are the largest in size, mononuclear, and stained blue. Neutrophils and eosinophils form polynuclear cells, but eosinophils are stained red with eosin and distinguished from neutrophils. Lymphocytes have very less cytoplasm and are small in size as monocytes.

[5] = tested on: animal model of pulmonary fibrosis; test: Measurement of total collagen content in lung (INSOLUBLE Collagen Assay); format: in vivo, mice; conditions: for collagen content in lung (hydroxyproline ratio value compared with normal group): 21st day
Method: as §1, §2
Pulmonary fibrosis is the accumulation of collagen in the lungs to make it stiff. The main cause of pulmonary fibrosis is the accumulation of collagen, and the degree of progression of fibrosis can be predicted by measuring the collagen content in the lung tissue.
In this experimental example, analysis was performed using INSOLUBLE Collagen Assay (Biocolor, S2000). After sacrifice on the 21st day, the cryopreserved lung tissue was pulverized by adding 100 uL of Fragmentation Reagent, and then, 100 uL of 37% HCl was added and incubated at 65°C. for 3 hours. The contents of the tube were shaken at 30 minute intervals to aid tissue disintegration. After centrifugation, the concentration was adjusted to 100 μL and collagen staining was proceeded to prepare a sample. Absorbance was measured at 560 nm.

[6] = Human pharmacokinetics, single administration (SAD); format: in vivo; conditions: median; healthy adults, single oral 500 mg, enteric coated tablet, N = 6
Method: (§3) The formulation used in the clinical trial was prepared in the same manner as in Preparation Examples 1 and 2.

[7] = Pharmacokinetic test after single oral administration in ICR mice; format: in vivo; conditions: mouse, blood; ICR mice (male), single oral 10 mg/kg, saline
Method: The pharmacokinetic parameters were calculated using Excel® and WinNonlin6.1 software for the blood drug concentration according to the change over time obtained through LC-MS/MS, and changes in the blood concentration of the active component are shown in Table 9 and FIG. 6.

[8] = Human pharmacokinetics, multiple administration (MAD), Day 14; format: in vivo; conditions: for Accumulation ratio based on AUCT: Day 14, N = 6; for AUC(0-t): human, plasma, oral
Method: as §3

[9] = tested on: healthy adults; test: Human administration safety/drug tolerance; format: in vivo
Method: as §3
The safety and drug resistance of the compound of the present invention during administration to humans was confirmed in the same manner as in Experimental Example 4.

[10] = tested on: ICR mice; test: 2-week repeated dose toxicity test in mice; format: in vivo; conditions: for SPLEEN % to BODY WEIGHT / SPLEEN weight / THYMUS % to BODY WEIGHT / THYMUS weight: 2 weeks, male ICR mice
Method: The active component was orally administered to acclimatized ICR mice for 7 days or more for 2 weeks.
After administration for 2 weeks, autopsies were performed on all animals. At autopsy, the weight of each organ was measured.

## COC(=O)c1ccc2c(c1)NC(=O)/C2=C(\Nc1ccc(N(C)C(=O)CN2CCN(C)CC2)cc1)c1ccccc1 [Nintedanib, reference compound]
[1]; Nintedanib 60 mg/kg oral
  SpO2: 78.67
[2]; Nintedanib 60 mg/kg oral
  change in body weight: −19.44
[3]; Nintedanib 60 mg/kg oral
  Fibrotic Index (±SEM): 3.1 (±0.6)
[4]; Nintedanib 60 mg/kg oral
  Lymphocyte (BALF cell count): 0.68
  Macrophage (BALF cell count): 5.61
  Neutrophil (BALF cell count): 1.29
  Total cell (BALF cell count): 7.57
[5]; Nintedanib 60 mg/kg oral
  collagen content in lung (hydroxyproline ratio value compared with normal group): 239.78

## Cc1ccc(=O)n(-c2ccccc2)c1 [Pirfenidone, reference compound]
[1]; Pirfenidone 200 mg/kg oral
  SpO2: 82.00
[2]; Pirfenidone 200 mg/kg oral
  change in body weight: −14.67
[3]; Pirfenidone 200 mg/kg oral
  Fibrotic Index (±SEM): 4.1 (±0.3)
[4]; Pirfenidone 200 mg/kg oral
  Lymphocyte (BALF cell count): 0.46
  Macrophage (BALF cell count): 5.01
  Neutrophil (BALF cell count): 0.68
  Total cell (BALF cell count): 6.14
[5]; Pirfenidone 200 mg/kg oral
  collagen content in lung (hydroxyproline ratio value compared with normal group): 177.44

## O[C@H]1CCCN[C@@H]1CCCn1cnc2c(Cl)c(Cl)ccc21 [Active component]
[6]
  tmax: 3.01 h
[1]; 10 mg/kg
  oxygen permeation function improved compared with Vehicle: ≥ 18%
[1]; 30 mg/kg
  oxygen permeation function improved compared with Vehicle: ≥ 28%
[1]; Active component 3 mg/kg oral
  SpO2: 75.00
[1]; Active component 10 mg/kg oral
  SpO2: 77.89
[1]; Active component 30 mg/kg oral
  SpO2: 81.33
[7]
  AUC: 1190 ng·h/mL
[8]; 25 mg tablet twice a day
  Accumulation ratio based on AUCT: 1.94
[8]; 50 mg tablet twice a day
  Accumulation ratio based on AUCT: 2.33
[8]; 100 mg tablet twice a day, Day 14, 12 hour dosing interval, N = 6
  AUCT: 617.40 ng·h/mL
[8]; 100 mg tablet twice a day
  Accumulation ratio based on AUCT: 1.88
[8]; 200 mg tablet twice a day
  Accumulation ratio based on AUCT: 3.75
[8]; 25 mg tablet twice a day, Day 14, 12 hour dosing interval, N = 6
  AUC(0-t): 183 ng·h/mL
[8]; 50 mg tablet twice a day, Day 14, 12 hour dosing interval, N = 6
  AUC(0-t): 429 ng·h/mL
[8]; 200 mg tablet twice a day, Day 14, 12 hour dosing interval, N = 6
  AUC(0-t): 3010 ng·h/mL
[9]; 72 healthy adults, single 100-600 mg and multiple 25-200 mg twice a day
  serious abnormal signs or side effects in clinical trial: no serious abnormal signs or side effects
[9]; single administration, healthy adults
  most frequent adverse reactions: gastrointestinal adverse events including nausea, vomiting, diarrhea and abdominal pain
[2]; 10 mg/kg
  degree of body weight loss compared with Vehicle group: improved
[2]; 30 mg/kg
  degree of body weight loss compared with Vehicle group: improved
[2]; Active component 3 mg/kg oral
  change in body weight: −22.44
[2]; Active component 10 mg/kg oral
  change in body weight: −19.11
[2]; Active component 30 mg/kg oral
  change in body weight: −16.78
[10]; 30 mg/kg/day oral
  SPLEEN % to BODY WEIGHT: 0.22%
  SPLEEN weight: 0.059
  THYMUS % to BODY WEIGHT: 0.10%
  THYMUS weight: 0.026
[10]; 60 mg/kg/day oral
  SPLEEN % to BODY WEIGHT: 0.25%
  SPLEEN weight: 0.070
  THYMUS % to BODY WEIGHT: 0.11%
  THYMUS weight: 0.029
[10]; 30, 60, 120→90 mg/kg/day oral, ICR mice
  toxicity / abnormal symptoms after repeated administration for 2 weeks: No toxicity or significant abnormal symptoms
[10]; 120→90 mg/kg/day oral
  SPLEEN % to BODY WEIGHT: 0.17%
  SPLEEN weight: 0.046
  THYMUS % to BODY WEIGHT: 0.05%
  THYMUS weight: 0.015
[10]; administration group of 30 mg/kg/day or more
  organ weight of spleen and thymus: slight weight loss tendency
[3]; 10 mg/kg
  tissue improvement effect compared with NIN and PID: tissue improvement effect equivalent to or greater than that of NIN
[3]; 30 mg/kg
  tissue improvement effect compared with NIN and PID: tissue improvement effect equivalent to or greater than that of NIN
[3]; Active component 3 mg/kg oral
  Fibrotic Index (±SEM): 4.6 (±0.3)
[3]; Active component 10 mg/kg oral
  Fibrotic Index (±SEM): 2.7 (±0.6)
[3]; Active component 30 mg/kg oral
  Fibrotic Index (±SEM): 2.8 (±0.4)
[4]; 10 mg/kg
  number of Neutrophil cells decreased compared to Vehicle: ≥ 20%
  total cell level improved compared to Vehicle: ≥ 20%
[4]; 30 mg/kg
  number of Neutrophil cells decreased compared to Vehicle: ≥ 60%
  total cell level improved compared to Vehicle: ≥ 30%
[4]; Active component 3 mg/kg oral
  Lymphocyte (BALF cell count): 0.79
  Macrophage (BALF cell count): 7.80
  Neutrophil (BALF cell count): 1.74
  Total cell (BALF cell count): 10.32
[4]; Active component 10 mg/kg oral
  Lymphocyte (BALF cell count): 0.51
  Macrophage (BALF cell count): 5.60
  Neutrophil (BALF cell count): 1.54
  Total cell (BALF cell count): 7.66
[4]; Active component 30 mg/kg oral
  Lymphocyte (BALF cell count): 0.46
  Macrophage (BALF cell count): 4.91
  Neutrophil (BALF cell count): 0.82
  Total cell (BALF cell count): 6.19
[5]; 10 mg/kg
  content of collagen in the lung compared to Vehicle: significantly reduced
[5]; 30 mg/kg
  content of collagen in the lung compared to Vehicle: significantly reduced
[5]; Active component 3 mg/kg oral
  collagen content in lung (hydroxyproline ratio value compared with normal group): 253.56
[5]; Active component 10 mg/kg oral
  collagen content in lung (hydroxyproline ratio value compared with normal group): 217.22
[5]; Active component 30 mg/kg oral
  collagen content in lung (hydroxyproline ratio value compared with normal group): 171.33
